How the values were obtained:
HEK293T cells [1] = test: Cell enumeration by dual-parameter flow cytometry; type: cell-based; conditions: 60 hr after transfection
Experimental: (C) Cell enumeration by flow cytometry. HEK293T cells expressing wild-type TIF-IA or the S649 mutants were harvested 60 hours after transfection, stained with FITC-conjugated anti-FLAG M2 antibodies and analyzed by dual-parameter flow cytometry in a FACScan™ flow cytometer in the presence of CaliBRITE™ calibration beads. 60,000 events were recorded from each sample. The number of cells expressing FLAG-TIF-IA was calculated from the ratio between FITC-positive cells and counted beads.
HEK293T cells were harvested 60 hr after transfection with pcDNA-FLAG-TIF-IA, fixed with 2% paraformaldehyde and permeabilized with 0.1% Triton X-100 in PBS. […] Cell were analyzed with a FACSCan™ flow cytometer in the presence of CaliBRITE™ beads (Becton Dickinson, San Jose, USA). The number of cells expressing FLAG-TIF-IA was calculated from the ratio between FITC-positive cells and counted beads.
Given the functional significance of ERK/RSK-directed TIF-IA phosphorylation on Pol I transcription, mutations that enhance or abrogate TIF-IA activity may have a positive or negative effect on cell growth. […] The expression of TIF-IA was estimated on Western blots and the cellular growth rate was measured by calcein-AM staining. […] Thus, cellular calcein fluorescence correlates with the amount of viable cells. […]

HEK293T cells [2] = test: Quantitative fluorimetric viability assay with calcein-AM; type: cell-based; conditions: 24, 36, 48 and 60 hr after transfection; 2 μM calcein-AM
Experimental: (B) Quantitative fluorimetric viability assay with calcein-AM. HEK293T cells were transfected with TIF-IA or the indicated point mutants. […] Viable cells were measured 24, 36, 48 and 60 hr after transfection by incubation with […] calcein-AM. The gradual increase in fluorescence intensity was recorded with a fluorescence multi-well plate reader for 20 min with an excitation wavelength of 485 nm and an emission wavelength of 530 nm. The proliferation rate of mock-transfected cells and cells overexpressing TIF-IA is shown at the left. Plots show the accumulation of calcein fluorescence (arbitrary units) against time. Growth rates calculated from linear regression curves are shown at the right. Values are presented as the mean±SD from three independent experiments performed in duplicates.
Conversion of calcein-AM (calcein acetoxymethyl ester, (CN Bioscience GmbH, Bad Soden, Germany) to calcein was used to measure cell proliferation. 12 hr after transfection, HEK293T cells were seeded to 96-well micro-plates at 1×10^4 cells/well. After 24, 36, 48 and 60 hr, cells were washed with PBS, incubated with 2 μM calcein-AM, and the gradual increase in fluorescence intensity within the cells was recorded by a fluorescence multi-well plate reader (CytoFluor Series 4000/TC, PerSeptive Biosystems, (Applied Biosystems, Forster City, USA) for 20 min in 1 min intervals. Excitation wavelength used for measurements of fluorescence was 485 nm with a bandwidth of 20 nm; emission wavelength was 530 nm with a bandwidth of 25 nm. Under the experimental conditions used, there is a direct correlation between the accumulation ratio of intracellular calcein fluorescence and the number of viable cells. The data from three independent experiments were analyzed by Sigmaplot and expressed as the mean±standard deviation. For statistical analysis, student's t test was used. Differences with a P<0.01 were considered statistically significant.
Given the functional significance of ERK/RSK-directed TIF-IA phosphorylation on Pol I transcription, mutations that enhance or abrogate TIF-IA activity may have a positive or negative effect on cell growth. To test this, HEK293T cells were transfected with cDNAs encoding wild-type or mutant TIF-IA which harbor single or double point mutations at S649 and S633. The expression of TIF-IA was estimated on Western blots and the cellular growth rate was measured by calcein-AM staining. Calcein-AM is a non-fluorescent, hydrophobic compound that is rapidly hydrolyzed by intracellular esterases releasing hydrophilic fluorescent calcein. Thus, cellular calcein fluorescence correlates with the amount of viable cells. […] Cells expressing FLAG-tagged wild-type or mutant TIF-IA were stained with FITC-conjugated anti-FLAG antibodies, identified by FACS and cell numbers were calculated by measuring the ratio of stained cells versus an internal standard. […] Conversely, the number of cells expressing TIF-IAS649A was 33% lower than the control. […] Taken together, the results reveal a striking correlation between phosphorylation of TIF-IA at serine 649, cellular rRNA synthetic activity and cell cycle progression.

HEK293T cells [3] = test: Relative DNA content of sorted cells by FACS analysis; type: cell-based
Experimental: HEK293T cells were harvested 60 hr after transfection with pcDNA-FLAG-TIF-IA, fixed with 2% paraformaldehyde and permeabilized with 0.1% Triton X-100 in PBS. Transfected cells were labeled by incubation for 1 hr with 2 μg/ml FITC-conjugated anti-M2 antibodies (Sigma) and subsequently stained with […] propidium iodide (Sigma). Cell were analyzed with a FACSCan™ flow cytometer in the presence of CaliBRITE™ beads (Becton Dickinson, San Jose, USA). The number of cells expressing FLAG-TIF-IA was calculated from the ratio between FITC-positive cells and counted beads.
Given the functional significance of ERK/RSK-directed TIF-IA phosphorylation on Pol I transcription, mutations that enhance or abrogate TIF-IA activity may have a positive or negative effect on cell growth. To test this, HEK293T cells were transfected with cDNAs encoding wild-type or mutant TIF-IA which harbor single or double point mutations at S649 and S633. The expression of TIF-IA was estimated on Western blots and the cellular growth rate was measured by calcein-AM staining. […] Thus, cellular calcein fluorescence correlates with the amount of viable cells. […] Cells expressing FLAG-tagged wild-type or mutant TIF-IA were stained with FITC-conjugated anti-FLAG antibodies, identified by FACS and cell numbers were calculated by measuring the ratio of stained cells versus an internal standard. […]

Pol I transcription [4] = test: In vitro transcription: TIF-IA mutants added to nuclear extract from exponentially growing FM3A cells; type: biochemical, murine; conditions: 20 and 40 ng added to 15 ug nuclear extract
Experimental: 20 and 40 ng of the indicated TIF-IA mutants were added to 15 ug nuclear extract from exponentially growing FM3A cells and rDNA transcription was assayed.
(§1) Nuclear extracts were prepared from exponentially growing (8×10^5 cells/ml), density-arrested or PD98059-treated (CN Bioscience, Bad Soden, Germany) 40 μM, 0.5 hr) or rapamycin-treated FM3A cells (ATCC, Manassas, USA). 25 μl assays contained 50 ng of template DNA (pMr600/EcoRI), 30 μg nuclear extract proteins and 12 mM Hepes-KOH, [pH8.0], 0.1 mM EDTA, 5 mM MgCl2, 80 mM KCl, 10 mM creatine phosphate, 12% (v/v) glycerol, 0.66 mM each of ATP, GTP and CTP, 0.01 mM UTP and 0.5 μCi [α-^32P]UTP (5000 Ci/mmol). After incubation for 60 min at 30° C., RNA was extracted and analyzed on non-denaturing 5% polyacrylamide gels
Given that phosphorylation of TIF-IA at serine 649 is essential for transcription, excess of TIF-IAS649A should impair Pol I transcription. To test this, we examined the effect of exogenous wild-type and mutant TIF-IA on transcriptional activity of extracts from exponentially growing cells.

Pol I transcription [5] = test: In vitro transcription: TIF-IA mutants restoring rDNA transcription of nuclear extract from density-arrested FM3A cells; type: biochemical, murine; conditions: S633/S649 mutants; 20 and 40 ng
Experimental: (A) Transcriptional activity of TIF-IA mutants in vitro. FLAG-tagged wild-type TIF-IA and the indicated single or double point mutants were overexpressed in HEK293T cells, immunopurified, and 20 and 40 ng were assayed for their capability to restore rDNA transcriptional activity of nuclear extract from density-arrested FM3A cells. The amount and purity of TIF-IA were estimated on silver-stained SDS-polyacrylamide gels and Western blots (data not shown).
(A) Transcriptional activity of TIF-IAS199A and TIF-IAS199D in vitro. FLAG-tagged wild-type TIF-IA and the indicated mutants were immunopurified from HEK293T cells, and 30 and 60 ng were assayed for their capability to restore transcriptional activity of nuclear extract from density-arrested FM3A cells. The amount and purity of TIF-IA were estimated on silver-stained SDS-polyacrylamide gels (data not shown).
(B) Transcriptional activity of TIF-IAS44A in vitro. FLAG-tagged wild-type TIF-IA and the indicated mutant were assayed for their transcriptional activity in vitro.
as §1
TIF-IA was immunopurified from untransfected NIH3T3 cells or from HEK293T cells overexpressing FLAG-tagged TIF-IA. 4×10^6 cells were lysed in 0.8 ml IP buffer (20 mM Tris-HCl [pH 7.4], 200 mM NaCl, 2 mM EDTA, 2 mM EGTA, 1% Triton X-100, 0.5 mM PMSF, 1 μg/ml aprotinin, 5 μg/ml leupeptin and 1 μg/ml pepstatin A), centrifuged at 10,000 g for 30 min, and the supernatants were incubated for 4 hr at 4° C. with either 10 μg anti-TIF-IA antibodies bound to 20 μl protein G-agarose or with anti-FLAG (M2) agarose (Sigma-Aldrich Corp., Missouri, USA). The immunocomplexes were successively washed with buffer AM (20 mM Tris-HCl [pH 8.0], 5 mM MgCl2, 0.1 mM EDTA, 20% glycerol) containing 400 and 100 mM KCl, respectively. The amount and purity of TIF-IA was estimated on silver-stained polyacrylamide gels and similar amounts of bead-bound TIF-IA were used in in vitro transcription assays. GST fusion proteins were expressed in E. coli BL21(DE3) and purified on Glutathione-Sepharose 4B according to the manufacturer's instructions.
To assess the functional relevance of S633 and S649 phosphorylation on transcriptional activity, the respective S→A and S→D single or double point mutants were purified from transfected cells and assayed for their capability to rescue transcription of extracts from density-arrested cells. […] Thus, phosphorylation of TIF-IA at S649 and S633 is required for transcriptional activity.
Phosphorylation of peptide a should inhibit TIF-IA activity, while phosphorylation of peptide b, e.g. S44, should augment TIF-IA activity.

HEK293T cells [6] = test: Trypan blue staining; type: cell-based; conditions: data not shown

“TIF-IAS649D: TIF-IA point mutant, serine 649 replaced by aspartic acid” was tested, and the “number of cells higher compared to cells overexpressing wild-type TIF-IA” value (HEK293T cells [1]) was 43%, the “cellular growth rate by calcein-AM staining” value (HEK293T cells [2]) was “accelerated cell growth” and the “increase of G2/M-phase cells” value (HEK293T cells [3]) was 50%. The “effect on transcriptional activity of extracts from exponentially growing cells” value (Pol I transcription [4]) was “enhanced Pol I transcription” and the “capability to rescue transcription of extracts from density-arrested cells” value (Pol I transcription [5]) was “activated Pol I transcription to a similar or even higher level compared to wild-type TIF-IA”.

“TIF-IAS633AS649D: printed once in b155, probably a misprint of TIF-IAS633AS649A” was tested, and the “cell viability as cause of growth inhibition” value (HEK293T cells [6]) was “not due to decreased cell viability”.

Source: US20060057669A1, “Inactive transcription factor tif-ia and uses thereof” (priority 2002, published 2006)
